What is called EC50 is the concentration needed to bring the measured effect to its halfway point.

Activity calls are given as the source filed them.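 Rule for the calls: active = a fitted half-maximal concentration EC50 for the rise in nuclear signal no higher than ten times the top dose tested; inconclusive = flat fit with activity between 30% and 70%, or unusable fit; inactive = EC50 beyond ten times the top dose.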 Bounds are passed on as bounds.

The target of this experiment is Hypoxia-inducible factor 1-alpha (Homo sapiens) (UniProt Q16665). Description: HIF pathway activation, GFP-HIF1alpha translocation – imaging, fluorescence, U2OS GFP-HIF1alpha, confirmation (AID 434951). Particulars: U2OS GFP-HIF1alpha nuclear intensity, high-content imaging.
Sequence of Hypoxia-inducible factor 1-alpha (Homo sapiens) (Q16665 whole entry, looked up): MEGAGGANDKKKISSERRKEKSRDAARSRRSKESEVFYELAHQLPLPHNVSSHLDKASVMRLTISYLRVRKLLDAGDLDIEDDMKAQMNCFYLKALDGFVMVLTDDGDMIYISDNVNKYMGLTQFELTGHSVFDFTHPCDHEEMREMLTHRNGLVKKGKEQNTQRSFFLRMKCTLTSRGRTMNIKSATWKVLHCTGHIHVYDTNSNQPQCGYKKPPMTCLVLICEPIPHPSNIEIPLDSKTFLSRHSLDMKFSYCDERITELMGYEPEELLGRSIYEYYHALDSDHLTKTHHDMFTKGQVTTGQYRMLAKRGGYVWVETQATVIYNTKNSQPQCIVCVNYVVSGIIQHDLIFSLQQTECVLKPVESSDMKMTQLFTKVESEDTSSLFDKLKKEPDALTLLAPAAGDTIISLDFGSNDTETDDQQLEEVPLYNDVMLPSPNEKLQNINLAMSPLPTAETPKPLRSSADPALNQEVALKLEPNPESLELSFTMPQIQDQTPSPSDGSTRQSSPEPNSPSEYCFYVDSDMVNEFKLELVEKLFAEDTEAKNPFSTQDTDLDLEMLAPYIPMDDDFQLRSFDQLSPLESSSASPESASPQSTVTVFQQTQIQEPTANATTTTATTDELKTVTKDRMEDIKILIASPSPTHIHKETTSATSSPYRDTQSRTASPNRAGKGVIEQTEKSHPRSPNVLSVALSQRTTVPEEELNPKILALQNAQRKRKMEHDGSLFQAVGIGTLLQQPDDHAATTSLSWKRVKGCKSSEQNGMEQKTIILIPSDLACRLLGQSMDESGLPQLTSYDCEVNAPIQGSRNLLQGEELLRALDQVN
Consider `Cc1[nH]n(-c2ccccc2)c(=O)c1N=Nc1ccc2c(c1)OCCO2`, for which the EC50 is > 35 µM (inactive).
As to `Cc1cc(S(=O)(=O)ON2C(=O)c3ccccc3C2=O)ccc1F`, the EC50 is 6.21 µM.
For the molecule `C=CCn1c(N2CCCCCC2)nc2c1c(=O)[nH]c(=O)n2C`, the EC50 was > 35 µM (inactive).
Consider `CC(=O)NC(c1ccc2ccccc2c1)c1ccc2cccnc2c1O` (stereo unspecified), for which the EC50 was 8.56 µM.
As for `O=C(CSc1c[nH]c2ccccc12)NCc1ccc2c(c1)OCO2`, the EC50 is > 35 µM (inactive).
For `Oc1c(CN2CCOCC2)cc(COCc2ccccc2)c2cccnc12`, the EC50 was 6.71 µM.
Turning to `CC(=O)NC(c1ccc(C)cc1)c1cc(Cl)c2cccnc2c1O` (stereo unspecified), the EC50 was 16.6 µM.
With `CC(C)N(c1ccccc1)c1ncnc(NCCC(=O)O)c1[N+](=O)[O-]`, the EC50 is > 35 µM (inactive).
Take `COC(=O)c1cn(C)c2ccc(S(=O)(=O)N3CCCCC3)cc2c1=O`: the EC50 is > 35 µM (inactive).
Consider `CCCCC(=O)NC(c1ccc(N(C)C)cc1)c1ccc2cccnc2c1O` (stereo unspecified), for which the EC50 was 3.09 µM.
As to `CCCCOC(=O)c1ccc(NC(=O)C(=O)NCc2cccnc2)cc1`, the EC50 was > 35 µM (inactive).
Regarding `CCn1c(N2CCC(Cc3ccccc3)CC2)nc2c1c(=O)[nH]c(=O)n2C`, the EC50 is > 35 µM (inactive).
The value for `CCOC(=O)/C(=N\Nc1cccc(C(F)(F)F)c1)N1CCOCC1` was > 35 µM (inactive); that for `COc1ccc(-c2cn3nc(SCC(=O)NCC4CCCO4)ccc3n2)cc1` (stereo unspecified) was > 35 µM (inactive); that for `COc1cccc2sc(N3CCN(C(=O)c4ccc([N+](=O)[O-])o4)CC3)nc12` was > 35 µM (inactive).
`CC(C)COc1ccc(C(=O)Nc2ccc([N+](=O)[O-])cc2)cc1`: the EC50 is > 35 µM (inactive).
Consider `O=C(COc1ccccc1)N(Cc1cccc(F)c1)C1CCS(=O)(=O)C1` (stereo unspecified), for which the EC50 was > 35 µM (inactive).
For the molecule `Cc1ccc(Nc2c(-c3ccccn3)nc3cccc(C)n23)cc1`, the EC50 was 4.41 µM.
`CC(=O)c1cccc(NC(=O)CSC(=O)c2ccccc2)c1`: the EC50 was > 35 µM (inactive).
As to `CCCC(=O)NC(c1ccc(OC)cc1)c1ccc2cccnc2c1O` (stereo unspecified), the EC50 is 7.24 µM.
As to `Cc1cc(C)c2c(N)c3ccccc3nc2n1`, the EC50 is 17.4 µM.
Take `O=C(N/N=C/c1cc2cc3c(cc2nc1Cl)OCO3)c1ccncc1`: the EC50 is > 35 µM (inactive).
For `COC(=O)CN1C(=O)[C@H]2[C@@H](c3ccc(C)o3)N3C(=O)CN(CC4CC4)C(=O)[C@@]3(Cc3ccccc3)[C@H]2C1=O`, the EC50 is > 35 µM (inactive).
For the molecule `CC1CCN(Cc2c(C(=O)N/N=C/c3ccccc3O)nnn2-c2nonc2N)CC1`, the EC50 is > 35 µM (inactive).
As to `Oc1ccc(N=Nc2ccc3c(c2)OCCO3)c2cccnc12`, the EC50 was > 35 µM (inactive).
In the case of `CCn1c(SCC(=O)c2cc(C)ccc2C)nc2cc(S(=O)(=O)N3CCOCC3)ccc21`, the EC50 was > 35 µM (inactive).
The value for `C/C(=N\NC(=O)c1nnn(-c2nonc2N)c1-c1ccccc1)c1ccccc1O` was 11.1 µM; that for `S=C(Nc1ccc(Cl)cc1)Nc1ccc2cn[nH]c2c1` was > 35 µM (inactive).
As to `CC(C)(C)c1csc(NNC(=O)c2ccc(Br)cc2)n1`, the EC50 was 29 µM.
Regarding `Oc1ccc2ccccc2c1N=Nc1ccccn1`, the EC50 was 9 µM.
Regarding `O=c1c2ccccc2nc(COc2ccccc2)n1/N=C/c1ccc(O)cc1O`, the EC50 was 9.68 µM.
The value for `COc1ccc2nc(-c3cccc(N)c3)[nH]c2c1` was > 35 µM (inactive).
Consider `CCOC(=O)c1c(S(=O)(=O)N2CCCC2)c(C)n(C)c1C`, for which the EC50 is > 35 µM (inactive).
As for `Cc1ccc(S(=O)(=O)c2nc(-c3ccccc3Cl)oc2N(C)C)cc1`, the EC50 is > 35 µM (inactive).
Turning to `CCOc1ccc(C(=O)NCC2CCCO2)cc1OCC` (stereo unspecified), the EC50 is > 35 µM (inactive).
Turning to `CCN(CC)CCC(=O)Nc1cccc2c1C(=O)c1ccccc1C2=O`, the EC50 was > 35 µM (inactive).

Source of the values: PubChem BioAssay AID434951 (Broad Institute, 2010).
